The values below come from patent US10064942B2, “Copper-cysteamine and methods of use” (THE BOARD OF REGENTS, THE UNIVERSITY OF TEXAS SYSTEM, priority 2013, dated 2018).

One data set relates to MCF-7 cells. The experiment in a line: MTT cytotoxicity of Cu-Cy crystals in MCF-7 cells. The format is cell-based, human. Conditions: 24 h incubation. On the procedure: The toxicity of Cu-Cy crystals in MCF-7 cells was evaluated using an MTT (3-(4,5-dimethylthiazol-2-yl)-2,5-diphenyltetrazoliumbromide) assay. 2 mg of the Cu-Cy crystals were well ground and sonicated before being dissolved in 1 mL of DI water (control) for the measurement.
Cytotoxicity was evaluated using the MTT assay. Approximately 2,000 cells/well MCF-7 cells were seeded into 96-well plates and allowed to grow for 48 hours in an incubator (Sanyo, Japan, 5% CO2, 37° C., humidified atmosphere). On the day of the experiment, after removing the culture medium, different volumes of media containing Cu-Cy particles were added to their respective wells and cytotoxicity was evaluated after 24 h of cell incubation

The test system of data set [1] is human hepatocellular liver cells (HEPT). The experiment in a line: UV light (350 nm) destruction of liver cells, calcein/EthD-1 fluorescence imaging. The format is cell-based. An excerpt:
FIGS. 11A-11D depict the comparison of UV light (350 nm) destruction on human hepatocellular liver cells (HEPT) without (top row, FIG. 11A and FIG. 11B) and with (bottom row, FIG. 11C and FIG. 11D) Cu-Cy crystals. […] The scale bar is always 100 μm.
FIGS. 11A-11D depict the effectiveness of the Cu-Cy material as causing cell death when irradiated with UV light or X-ray. For example, in FIGS. 11A-11D, the fluorescence images of human hepatocellular liver cells were taken before and after the UV light exposure (350 nm, for 2 minutes, from an OLYMPUS IX71 microscope). Calcein and Ethidium homodimer 1 (EthD-1) were used as the stains showing cell alive (green) and death (red) respectively.
Each of the images was taken right after the staining without further liver cell incubation.

For data set [2], the system named is human breast cancer (MCF-7) cells. The experiment in a line: UV light (350 nm) destruction of MCF-7 cells, fluorescence imaging. The class given is cell-based. To be noted: MCF-7 cells exposed to Cu-Cy and irradiated with UV light (350 nm). The text has this:
FIGS. 12A-12D depict the comparison of UV light (350 nm) destruction on human breast cancer (MCF-7) cells without (top row, FIG. 12A and FIG. 12B) and with (bottom row, FIG. 12C and FIG. 12D) Cu-Cy crystals. […] The scale bar is always 100 μm.
Photo-induced toxicity was then applied to cancer cells.

Data set [3] shares this test system. Kind of data set: X-ray destruction of MCF-7 cells, calcein/EthD-1 fluorescence imaging. The format is cell-based. The text has this:
FIGS. 13A-13D depict the comparison of X-ray (2 Gy) destruction on human breast cancer (MCF-7) cells without (top row, FIG. 14A and FIG. 14B) and with (bottom row, FIG. 14C and FIG. 14D) Cu-Cy crystals. […] The scale bar is always 100 μm.
As stated herein above, the disclosed Cu-Cy compound also absorbs X-rays and emits a luminescent spectrum. FIG. 13A-13D depicts the MCF-7 cell viabilities by fluorescence images with and without Cu-Cy crystals and with and without X-ray irradiation. As with UV radiation, X-ray irradiation of cells incubated with the disclosed Cu-Cy complex is also an effective method for causing cell death.
FIGS. 14A-D depict fluorescence images of MCF-7 cells before and after 1 Gy X-ray exposure by an OLYMPUS IX71 microscope. Calcein and ethidiumhomodimer 1 (EthD-1) were used as the stains showing cells alive (green) and dead (red) respectively. Each of the images was taken immediately after staining, without further cell incubation.
MCF-7 cells were seeded into two 6-well plates (A and B) at 5,000 cells/well and incubated for 48 h at 37° C. in a humidified atmosphere of 5% v/v CO2 at dark. On the day of the experiment, the culture medium was removed and 5 mL medium containing 0 and 40 μg/ml Cu-Cy particles were added to different wells. […] The cells were viewed under an OLYMPUS IX71 fluorescence microscope.

The subject of data set [4] is human prostate cancer (PC3) cells. Kind of data set: X-ray (2 Gy) destruction of PC3 cells, fluorescence imaging. The format is cell-based. Conditions: Cu-Cy crystals plus X-ray 2 Gy. An excerpt:
FIGS. 14A-14D depict the comparison of X-ray (2 Gy) destruction on human prostate cancer (PC3) cells without (top row, FIG. 14A and FIG. 14B) and with (bottom row, FIG. 14C and FIG. 14D) Cu-Cy crystals. […] The scale bar is always 100 μm.
As such, the combination of the disclosed Cu-Cy material and a source of radiation provides an effective method for inducing cell death.

A further data set has as its system MCF-7 tumors. The class given is in vivo, nude mice. On the procedure:
A suspension of 10×10^6MCF-7 cancer cell lines was injected subcutaneously into flanks on both shoulder and leg area of nude mice. Mice were monitored on a daily basis for the growth of tumors (FIG. 24). […] Saline (10 μL, as control, left shoulder) and Cu-Cy with concentration about 0.8 mg/mL (10 μL-right shoulder, 15 μL-left leg and 20 μL-right leg) were injected intra-tumorally. At one minute post-injection, mice were anesthetized with 2% (v/v) isofluorane, and tumors were irradiated with an X-ray dose of 5 Gy. Without X-ray treatment (top row), the tumors grew as time progressed, and there was no apparent size difference among Cu-Cy dosages of 10, 15, and 20 μl. Meanwhile, the tumors with no Cu-Cy (saline only) treatment were larger than the tumors with Cu-Cy treatment. […] The animals were sacrificed via CO2 inhalation and cervical […] on the day 13 of tumor growth. Absent X-ray radiation (top row), the tumors without Cu-Cy treatment grew to a somewhat larger volume than those treated by Cu-Cy, which indicates the minor toxicity from the Cu-Cy particles themselves. […] This is seen by comparing the two tumors treated with saline with and without X-ray radiation. For the treatment with 20 μL of Cu-Cy particles at 5 Gy dose, the tumor size is reduced to about 3 mm in diameter while the untreated tumor size is about 10 mm in diameter.

The next data set in a line: Stability in solution. The format is physicochemical. Conditions: aqueous solution and other common solvents.

Take “Cu3Cl(SR)2 wherein R is —CH2CH2NH2 [Cu-Cy]”: the results for the cellular viability result with MCF-7 cells (Cu-Cy 0.1 μg/ml) and in the data set on MCF-7 cells (Cu-Cy 200 μg/ml) were “about 95%” and “about 70%”, respectively. The cell death entry in data set [1] (Cu-Cy crystals alone, no UV irradiation) is listed as “does not result in significant cell death”; in data set [1] (Cu-Cy crystals plus UV light 350 nm for 2 minutes), “significant cell death”; in data set [3] (Cu-Cy particles alone, no X-ray), “little cell death”; in data set [4], “Significant cell death”. In data set [2], the cellular death result is “significant cellular death”. Besides, the cell destruction result in data set [3] (Cu-Cy coupled with X-ray treatment (1 Gy; 2 Gy elsewhere in the source)) was “significant cell destruction”. Besides, the “tumor size (diameter)” value in the data set with MCF-7 tumors (20 μL Cu-Cy (about 0.8 mg/mL) intra-tumoral, X-ray 5 Gy, day 13) is reported as “about 3 mm”. Also, in the data set on MCF-7 tumors (mouse, in vivo), the “toxicity of Cu-Cy particles themselves in vivo” value was “slight toxicity in vivo”. Moreover, the tumor growth result in the data set with MCF-7 tumors (with X-ray radiation 5 Gy, 15 and 20 μL Cu-Cy dosages) is reported as “greatly reduced”. For the same substance, in the data set with MCF-7 tumors (without X-ray, Cu-Cy 10, 15, 20 μL), the “tumor size or growth” value was “does not significantly reduce tumor size or growth”. For the same substance, the stability entry in “Stability in solution” was “stable in aqueous solution”.
